Patent US5563176A (priority 1994, dated 1996)
Like-named read-outs stand apart in the source and are kept apart here.

Assays:
[1] = system: L1210 PAM (melphalan) cells; assay: sensitivity of mdr lines, L1210 PAM; type: cell-based; conditions: Mus musculus
[2] = system: L1210 CPA (cyclophos) cells; assay: sensitivity of mdr lines, L1210 CPA; type: cell-based; conditions: Mus musculus
KB parent cells = assay: sensitivity of mdr lines, KB parent; type: cell-based
[3] = kinetics of the reaction with dilute HCl; type: physicochemical; conditions: dehydroilludin M
Excerpt: Consistent with the above hypothesis are the results of the kinetics of the reaction of illudin M and dehydroilludin M with dilute HCl. […] In the reaction with dehydroilludin M, no intermediate could be detected by NMR spectroscopy. Presumably it formed too slowly and is too short-lived to be detected.

8392 cells (B-cell) = assay: cells; type: cell-based; conditions: 2 h
HL60 cells = assay: cells; type: cell-based; conditions: Homo sapiens, HL-60, 48 h, read-out: 48 hour IC50
[4] = system: MDA-231 3-1 (gp170+) cells; assay: sensitivity of mdr lines, MDA-231 3-1; type: cell-based; conditions: Homo sapiens, MDA-MB-231
MCF-7, breast = assay: cells; type: cell-based, human; conditions: Homo sapiens, MCF7, 2 h
242, melanoma = assay: inhibition of thymidine incorporation after two hour exposure, 242; type: cell-based; conditions: 2 h; Table 1; 242, two hour exposure
Method: To assess cytotoxic effects, various concentrations of illudins were added to cultures of cells for 48 hours, then cell growth/viability was determined by trypan blue exclusion. As an alternative to 48 hour continuous exposure studies, cells were plated in liquid culture in 96 well plates, exposed to various concentrations of illudins for 2 hours, pulsed with [^3 H]-thymidine for one to two hours and harvested onto glass filters. The filter papers were added to vials containing scintillation fluid and residual radioactivity determined in a beta (scintillation) counter.
two hour exposure to the toxins (N - 3).

Structure (SMILES): CC1=C2C(=O)C(C)(C)C=C2C(=O)[C@](C)(O)C12CC2 [Dehydroilludin M]
- IC50 [1]: 0.073 ± 0.031 µM
- IC50 [2]: 0.038 ± 0.015 µM
- IC50 (KB parent cells): 0.125 ± 0.014 µM
- half-life [3]: 46.1 h
- k, first-order reaction [3]: 2×10^-4 min^1
- IC50 (8392 cells (B-cell)): > 38 µM
- IC50 (8392 cells (B-cell); read-out: Two hour IC50): 61.3 µM
- IC50 (HL60 cells): 0.296 ± 0.066 µM
- IC50 [4]: 0.058 ± 0.011 µM
- IC50 (MCF-7, breast): 0.653 ± 0.065 µM
- IC50 (242, melanoma): > 38 µM
